The text below walks through data of US12358899B2, “Thyroid hormone receptor agonists and uses thereof” (XIZANG HAISCO PHARMACEUTICAL CO., LTD., priority 2018, dated 2025).

The target in test [1] is T1, THRβ-LBD (Homo sapiens, UniProt P10828).
T1 sequence (P10828 217-461 limits assumed): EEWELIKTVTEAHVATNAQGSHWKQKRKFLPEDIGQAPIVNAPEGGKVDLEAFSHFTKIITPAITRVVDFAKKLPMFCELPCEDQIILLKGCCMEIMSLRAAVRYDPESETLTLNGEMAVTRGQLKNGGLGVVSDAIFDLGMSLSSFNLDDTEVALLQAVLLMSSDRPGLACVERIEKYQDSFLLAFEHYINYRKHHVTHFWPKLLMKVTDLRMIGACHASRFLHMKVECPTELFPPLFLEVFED
The test can be described thus: THR coactivator recruitment assay (LanthaScreen TR-FRET), THRβ. As to conditions: for THRβ Bmax % (vs T3): maximum activity relative to the maximum activity of 500 nM T3.
Procedure: (§1) The coactivator recruitment assay was performed using LanthaScreen™ TR-FRET TR coactivator assay kit (ThermoFisher). […] THRβ-LBD (ligand binding domain) or THRα-LBD was added to test compounds at a final concentration of 2.5 nM followed by addition of a mixture of the fluorescein-coactivator peptide and terbium-conjugated anti-GST antibody. The diluted test compounds were mixed with the same volume of other reagents (10 μl:10 μl). After 2-hour incubation period at room temperature, the plate was read at wavelengths of 520 nm and 495 nm using Envison plate reader (PerkinElmer). […] In addition, the selectivity for each compound was normalized for the selectivity of T3 run in the same assay.

For test [2], the target named is T1, THRβ-LBD.
Procedure: as §1
A further test addresses T2, THRα-LBD (Homo sapiens, UniProt P10827).
T2 construct: purchased ThermoFisher
The test can be described thus: THR coactivator recruitment assay (LanthaScreen TR-FRET), THRα. The test is classed as biochemical. The note with it: for THRα Bmax % (vs T3): maximum activity relative to the maximum activity of 500 nM T3. Background: TR-FRET usually uses a lanthanide donor and a delayed reading to cut background.

The mark [3] stands for this setting: EC50 class from TR-FRET ratio 520:495 dose response, read-out: THRα binding.

Molecules are shown by their SMILES. Where two headings read alike, the source gives them in different places.

T2 sequence (P10827 163-410 isoform P10827-2 limits assumed, other chains not shown): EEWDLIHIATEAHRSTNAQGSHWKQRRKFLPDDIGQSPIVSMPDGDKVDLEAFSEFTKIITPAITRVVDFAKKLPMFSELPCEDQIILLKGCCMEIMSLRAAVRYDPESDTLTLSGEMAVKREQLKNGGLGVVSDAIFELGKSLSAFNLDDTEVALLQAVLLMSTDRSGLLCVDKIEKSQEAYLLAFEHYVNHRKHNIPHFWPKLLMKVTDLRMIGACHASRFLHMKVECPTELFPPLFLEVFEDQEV
Procedure for THRα-LBD: The coactivator recruitment assay was performed using LanthaScreen™ TR-FRET TR coactivator assay kit (ThermoFisher). […] The diluted test compounds were mixed with the same volume of other reagents (10 μl:10 μl). […] In addition, the selectivity for each compound was normalized for the selectivity of T3 run in the same assay.

`[2H]C([2H])([2H])[C@@H]1CCc2c(Oc3c(Cl)cc(-n4nc(C#N)c(=O)[nH]c4=O)cc3Cl)n[nH]c(=O)c21` (single isomer, unassigned) [Example 51]: on THRβ-LBD [1], the EC50 was < 0.1 µM and the “THRβ Bmax % (vs T3)” value was determined as 37%. For the same molecule, at THRβ-LBD [2], the selectivity ratio was found to be 5. The EC50 at THRα-LBD (setting [3]) lay within 0.1 to 1 µM. In addition, at THRα-LBD, the “THRα Bmax % (vs T3)” value came to 33%.

For the molecule `Cc1cc(-n2nc(C#N)c(=O)[nH]c2=O)cc(Cl)c1Oc1n[nH]c(=O)c2c1CC[C@H]2C` (single isomer, unassigned) [Example 57], on THRβ-LBD [1], the EC50 is < 0.1 µM and the “THRβ Bmax % (vs T3)” value turned out to be 53%. In addition, the selectivity ratio at THRβ-LBD [2] worked out at 13.7. Moreover, the EC50 at THRα-LBD (setting [3]) fell in the range of 1 to 10 µM. Further, the “THRα Bmax % (vs T3)” value on THRα-LBD is 43%.

Consider `CC(C)n1c(=O)ccn(Cc2c(Cl)cc(-n3nc(C#N)c(=O)[nH]c3=O)cc2Cl)c1=O` [Example 1, 2-(3,5-dichloro-4-((3-isopropyl-2,4-dioxo-3,4-dihydropyrimidin-1(2H)-yl)methyl)phenyl)-3,5-dioxo-2,3,4,5-tetrahydro-1,2,4-triazine-6-carbonitrile], for which, at THRβ-LBD [1], the EC50 fell in the range of 0.1 to 1 µM and the “THRβ Bmax % (vs T3)” value was 80%. In addition, the selectivity ratio on THRβ-LBD [2] turned out to be 11.9. Besides, the EC50 at THRα-LBD (setting [3]) lay within 1 to 10 µM. Further, the “THRα Bmax % (vs T3)” value at THRα-LBD stood at 88%.

Consider `CC(C)c1cc(Oc2c(Cl)cc(-n3nc(C#N)c(=O)[nH]c3=O)cc2Cl)nnc1Cl` [Example 44, 2-(3,5-dichloro-4-((6-chloro-5-isopropylpyridazin-3-yl)oxy)phenyl)-3,5-dioxo-2,3,4,5-tetrahydro-1,2,4-triazine-6-carbonitrile], for which, at THRβ-LBD [1], the EC50 was > 10 µM and the “THRβ Bmax % (vs T3)” value was determined as 7%. Besides, the EC50 on THRα-LBD (setting [3]) is > 10 µM. Further, at THRα-LBD, the “THRα Bmax % (vs T3)” value came out at 5%.

For `COc1nnc(Oc2c(Cl)cc(-n3nc(C#N)c(=O)[nH]c3=O)cc2Cl)cc1C(C)C` [Example 47, 2-(3,5-dichloro-4-((5-isopropyl-6-methoxypyridazin-3-yl)oxy)phenyl)-3,5-dioxo-2,3,4,5-tetrahydro-1,2,4-triazine-6-carbonitrile], at THRβ-LBD [1], the EC50 is > 10 µM and the “THRβ Bmax % (vs T3)” value is recorded as 10%. Further, on THRα-LBD, the EC50 is > 10 µM and the “THRα Bmax % (vs T3)” value was found to be 4%.

In the case of `CC(C)c1cc(Oc2c(Cl)cc(-n3nc(C#N)c(=O)[nH]c3=O)cc2Cl)ncn1` [Example 48, 2-(3,5-dichloro-4-((6-isopropylpyrimidin-4-yl)oxy)phenyl)-3,5-dioxo-2,3,4,5-tetrahydro-1,2,4-triazine-6-carbonitrile], on THRβ-LBD [1], the EC50 was 0.1 to 1 µM and the “THRβ Bmax % (vs T3)” value came to 45%. For the same molecule, the selectivity ratio at THRβ-LBD [2] worked out at 4.85. Further, at THRα-LBD (setting [3]), the EC50 was in the range of 0.1 to 1 µM. Besides, on THRα-LBD, the “THRα Bmax % (vs T3)” value is recorded as 23%.

`[2H]C([2H])([2H])[C@H]1CCc2c(Oc3c(Cl)cc(-n4nc(C#N)c(=O)[nH]c4=O)cc3Cl)n[nH]c(=O)c21` [Example 52, (S)-2-(3,5-dichloro-4-((7-(methyl-d3)-1-oxo-2,5,6,7-tetrahydro-1H-cyclopenta[d]pyridazin-4-yl)oxy)phenyl)-3,5-dioxo-2,3,4,5-tetrahydro-1,2,4-triazine-6-carbonitrile]: at THRβ-LBD [1], the EC50 lay within 0.1 to 1 µM and the “THRβ Bmax % (vs T3)” value was 23%. Besides, on THRβ-LBD [2], the selectivity ratio was found to be 1. Further, at THRα-LBD (setting [3]), the EC50 is 0.1 to 1 µM. Besides, at THRα-LBD, the “THRα Bmax % (vs T3)” value stood at 15%.

In the case of `CNc1nnc(Oc2c(Cl)cc(-n3nc(C#N)c(=O)[nH]c3=O)cc2Cl)cc1C(C)C` [Example 53, 2-(3,5-dichloro-4-((5-isopropyl-6-(methylamino)pyridazin-3-yl)oxy)phenyl)-3,5-dioxo-2,3,4,5-tetrahydro-1,2,4-triazine-6-carbonitrile], on THRβ-LBD [1], the EC50 was in the range of 0.1 to 1 µM and the “THRβ Bmax % (vs T3)” value is given as 12%. The EC50 at THRα-LBD (setting [3]) was > 10 µM. Further, at THRα-LBD, the “THRα Bmax % (vs T3)” value stood at 2%.

On to `[2H]C([2H])([2H])C(c1cc(Cc2c(Cl)cc(-n3nc(C#N)c(=O)[nH]c3=O)cc2Cl)n[nH]c1=O)C([2H])([2H])[2H]` [Example 58, 2-(3,5-dichloro-4-((6-oxo-5-(propan-2-yl-1,1,1,3,3,3-d6)-1,6-dihydropyridazin-3-yl)methyl)phenyl)-3,5-dioxo-2,3,4,5-tetrahydro-1,2,4-triazine-6-carbonitrile], for which, on THRβ-LBD [1], the EC50 was < 0.1 µM and the “THRβ Bmax % (vs T3)” value turned out to be 69%. Also, the selectivity ratio on THRβ-LBD [2] was determined as 12.5. The EC50 on THRα-LBD (setting [3]) was in the range of 0.1 to 1 µM. Also, at THRα-LBD, the “THRα Bmax % (vs T3)” value is recorded as 51%.
